# Target: T1, Angiotensin-converting enzyme (Oryctolagus cuniculus, UniProt P12822)
# T1 sequence (P12822 whole entry): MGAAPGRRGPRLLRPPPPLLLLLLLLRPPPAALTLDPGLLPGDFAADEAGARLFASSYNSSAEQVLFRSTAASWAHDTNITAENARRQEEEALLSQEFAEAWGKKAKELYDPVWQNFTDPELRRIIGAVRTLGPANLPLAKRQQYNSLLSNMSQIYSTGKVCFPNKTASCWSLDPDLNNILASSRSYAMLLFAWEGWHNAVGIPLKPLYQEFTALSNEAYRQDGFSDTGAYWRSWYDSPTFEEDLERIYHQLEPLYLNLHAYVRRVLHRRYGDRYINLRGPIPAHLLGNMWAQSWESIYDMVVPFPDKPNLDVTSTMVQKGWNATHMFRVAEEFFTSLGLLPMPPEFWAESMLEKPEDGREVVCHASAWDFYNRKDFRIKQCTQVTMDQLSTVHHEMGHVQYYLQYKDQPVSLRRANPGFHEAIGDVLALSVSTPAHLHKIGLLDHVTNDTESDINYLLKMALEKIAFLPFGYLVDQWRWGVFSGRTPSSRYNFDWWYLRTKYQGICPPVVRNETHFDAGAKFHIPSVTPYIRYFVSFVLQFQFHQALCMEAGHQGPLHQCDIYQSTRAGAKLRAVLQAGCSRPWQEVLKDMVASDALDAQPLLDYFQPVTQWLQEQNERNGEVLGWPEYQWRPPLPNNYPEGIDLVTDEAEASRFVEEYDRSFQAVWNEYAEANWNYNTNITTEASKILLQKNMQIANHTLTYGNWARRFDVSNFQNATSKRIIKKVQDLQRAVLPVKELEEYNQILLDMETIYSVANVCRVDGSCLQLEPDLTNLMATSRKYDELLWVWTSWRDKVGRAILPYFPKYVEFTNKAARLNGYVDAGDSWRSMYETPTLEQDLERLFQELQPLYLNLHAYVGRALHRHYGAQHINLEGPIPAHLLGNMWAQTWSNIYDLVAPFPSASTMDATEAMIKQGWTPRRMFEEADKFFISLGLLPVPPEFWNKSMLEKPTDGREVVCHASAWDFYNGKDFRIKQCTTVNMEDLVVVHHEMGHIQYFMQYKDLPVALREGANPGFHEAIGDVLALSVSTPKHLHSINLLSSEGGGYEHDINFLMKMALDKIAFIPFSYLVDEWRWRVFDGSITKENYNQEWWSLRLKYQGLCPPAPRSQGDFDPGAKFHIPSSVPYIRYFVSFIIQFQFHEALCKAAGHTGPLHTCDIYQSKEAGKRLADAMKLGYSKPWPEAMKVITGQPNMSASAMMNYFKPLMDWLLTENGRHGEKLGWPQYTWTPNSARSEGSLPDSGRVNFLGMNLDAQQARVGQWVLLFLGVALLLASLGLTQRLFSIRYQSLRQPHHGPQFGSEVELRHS
# Test: ChEBML_34797
row,IC50,Compound
1,> 100 µM,CC(=O)Sc1c(C(=O)N(CC(=O)O)C2CCCC2)cccc1C(C)C
2,> 100 µM,CC(C)(C)C(=O)Sc1ccccc1C(=O)N(CC(=O)O)C1CCCC1
3,> 100 µM,O=C(O)CN(C(=O)c1ccc(Cl)cc1S)C1CCCC1

# Source: BindingDB's records for doi:10.1021/jm00381a012 (1985)
